What was measured:
[1] = system: healthy females and males; test: Human patch test; assay type: in vivo; conditions: 1% in patch base; for Average Response (n = 30): calculated by equation 4, below 1 = no irritation; for Number of the subjected showing response, 24 hours later, − (No visible response) / Number of the subjected showing response, 24 hours later, ± (Mild erythema) / Number of the subjected showing response, 24 hours later, + (Intense erythema) / Number of the subjected showing response, 24 hours later, + + (Intense erythema with edema) / Number of the subjected showing response, 24 hours later, + + + (Intense erythema with edema and vesicle): n = 30, 24 hours later; for Number of the subjected showing response, 24 hours later, − (No visible response) / Number of the subjected showing response, 48 hours later, − (No visible response): grade 0; for Number of the subjected showing response, 24 hours later, ± (Mild erythema) / Number of the subjected showing response, 48 hours later, ± (Mild erythema): grade 1; for Number of the subjected showing response, 24 hours later, + (Intense erythema) / Number of the subjected showing response, 48 hours later, + (Intense erythema): grade 2; for Number of the subjected showing response, 24 hours later, + + (Intense erythema with edema) / Number of the subjected showing response, 48 hours later, + + (Intense erythema with edema): grade 3; for Number of the subjected showing response, 24 hours later, + + + (Intense erythema with edema and vesicle) / Number of the subjected showing response, 48 hours later, + + + (Intense erythema with edema and vesicle): grade 4; for Number of the subjected showing response, 48 hours later, − (No visible response) / Number of the subjected showing response, 48 hours later, ± (Mild erythema) / Number of the subjected showing response, 48 hours later, + (Intense erythema) / Number of the subjected showing response, 48 hours later, + + (Intense erythema with edema) / Number of the subjected showing response, 48 hours later, + + + (Intense erythema with edema and vesicle): n = 30, 48 hours later
Procedure: This test was performed for thirty (30) healthy females and males aged on average 24.8 years and having no experience of hypersensitivity, according to method of CTFA Guideline (The Cosmetic, Toiletry and Fragrance Association. Inc. Washington, D.C., 20023, 1991). Each compound of Examples 1˜6 was dissolved in patch base having the composition of Table 6 to be 1% concentration as for test materials, and 20 μl of each test materials was dropped into a Finn chamber respectively, then attached to the forearm of the subject and fixed with a micropore tape. After 24 hours of patching, the patches were removed and the test sites were marked with marking pen. The observations of the test sites were made after 24 and 48 hours from the patching.
The average response of Table 8 was calculated by the following equation 4. [formula]

[2] = system: Human fibroblasts; test: Collagenase-inhibiting effect (collagenase expression, ELISA kit); assay type: cell-based; conditions: 10^-4 M, 24 hours, relative to untreated control group = 100
Procedure: The collagenase-inhibiting effect of hydroxy pyranone derivatives obtained in Examples 1˜6 was compared with those of retinol and retinoic acid.
Human fibroblasts were cultured in Dulbecco's Modified Eagle's Medium (DMEM) supplemented with 2.5% fetal bovine serum. The fibroblasts were seeded into a 96-well microtiter plate to a density of 5,000 cells/well, and then cultured to 70˜80% of growth. The plate was treated with test samples at a concentration of 10^−4M for 24 hours, then the cultured medium and the cells were raked up and recovered. From the recovered culture, collagenase production was measured with collagenase kit (Catalog #: RPN 2610) commercialized by Amersham Pharmacia Biotech. First, the recovered culture was added into a 96-well plate wherein primary collagenase antibodies were uniformly spread, and then antigen-antibody reaction was performed in an incubator for 3 hours. Later, secondary collagenase antibodies bonded with chromophore were added to the 96-well plate and reacted for 15 minutes. Then, color former was added thereto in order to induce development at the room temperature for 15 minutes, and 1M of sulfuric acid was added to stop the reaction. The reaction solution became yellow, and the color density depends on the progress of the reaction. The absorbance of the yellow 96-well plate was measured at 405 nm with absorptiometer. The expression of collagenase was calculated by the following equation 1. No sample was treated in the control group.
[Equation 1] The expression of collagenase (%)=[(Absorbance of test group)/(Absorbance of control group)]×100
The expression of collagenase was evaluated as a relative value compared with that of the control group of which the expression of collagenase was set to be 100.

[3] = system: rabbits; test: Primary skin irritation test on animals (Draize P.I.I.); assay type: in vivo; conditions: 1% in 1,3-butylene glycol:ethanol=7:3, 0.5 ml, observed 24 and 72 hours later
Procedure: This test was performed for six (6) healthy male rabbits whose hairs on both sides of the backs were cut. The compounds of Examples 1˜6 were dissolved in 1,3-butylene glycol:ethanol=7:3, to obtain 1% concentration of test samples. 0.5 ml of each test samples were applied to right side area of 2.5 cm×2.5 cm. No sample was treated on left side as a control. 24 hours and 72 hours later, skin abnormality such as erythema, crust and edema was observed. Based on the score of skin response, skin irritation was estimated according to Draize's P.I.I. (Primary Irritation Index) and compared with that of retinoic acid.

[4] = system: Human fibroblasts; test: Effect on biosynthesis of collagen (procollagen type (I) ELISA); assay type: cell-based; conditions: 10^-4 M, 24 hours, relative to untreated control group = 100
Procedure: The effect of the hydroxy pyranone derivatives obtained in Examples 1˜6 on biosynthesis of collagen was compared with those of retinol and retinoic acid.
Human fibroblasts were seeded into a 24-well plate to a density of 10^5 cells/well and then cultured to 90% of growth. The plate was washed with PBS (phosphate buffered saline) and treated with test samples at a concentration of 10^−4M, and then incubated in a CO2 incubator for 24 hours. From its supernatant, procollagen production was measured with procollagen type (I) ELISA kit. The biosynthesis of collagen was evaluated as a relative value compared with that of the control group, which is not treated with sample and of which the value of biosyntheis of collagen was set to be 100.

[5] = system: white guinea pigs; test: Phototoxicity test; assay type: in vivo; conditions: 1% (w/v) solution, UVA 15 J/cm^2, observed at 24, 48 and 72 hours; for Phototoxic index: below 0.5 = no phototoxicity
Procedure: This test was performed for ten (10) white guinea pigs whose hairs on both sides of the backs were cut, and fixed. On the back of the guinea pig, six (6) test sites measuring 2.5 cm×2.5 cm, three (3) per each side, were sectioned. Right sites were prepared as controls with no irradiation (UV non-irradiation sites) and left sites were irradiated (UV irradiation sites). Vehicle (1,3-butylene glycol:ethanol=7:3) was used as a negative control, and 0.1% concentration of 8-MOP (methoxypsoralene) was used as a positive control; and 1% (w/v) solutions of the compounds of Examples 1˜6 were applied to either site with an amount of […] for each site. 30 minutes later, right sites were shielded with aluminum foil and UVA(320˜380 nm) was irradiated at a distance of about 10 cm therefrom with Waldmann to the final energy of 15 J/cm^2. After 24, 48 and 72 hours elapsed, skin response of guinea pig was observed. Erythema and edema were scored from 0 to 4 points as shown in the Table 3, and skin response was evaluated by summing the scores. Maximum scores were selected when measured on each elapsed time, i.e. 24, 48 and 72 hours, and irritation index was calculated according to the following equation 2. Then, phototoxic index was calculated according to the following equation 3.
[Equation 2] Irritation index=(Maximum of erythema+Maximum of edema)/Number of animals [Equation 3] Phototoxic index=(Irritation index of UV irradiation site)−(Irritation index of UV non-irradiation site)

Row | Molecule | Average Response (n = 30) [1] | Number of the subjected showing response, 24 hours later, − (No visible response) [1] | Number of the subjected showing response, 24 hours later, ± (Mild erythema) [1] | Number of the subjected showing response, 24 hours later, + (Intense erythema) [1] | Number of the subjected showing response, 24 hours later, + + (Intense erythema with edema) [1] | Number of the subjected showing response, 24 hours later, + + + (Intense erythema with edema and vesicle) [1] | Number of the subjected showing response, 48 hours later, − (No visible response) [1] | Number of the subjected showing response, 48 hours later, ± (Mild erythema) [1] | Number of the subjected showing response, 48 hours later, + (Intense erythema) [1] | Number of the subjected showing response, 48 hours later, + + (Intense erythema with edema) [1] | Number of the subjected showing response, 48 hours later, + + + (Intense erythema with edema and vesicle) [1] | Expression of collagenase (%) [2] | Evaluation (skin irritation) [3] | P. I. I. (Primary Irritation Index) [3] | Biosynthesis of collagen (%) [4] | Evaluation (phototoxicity) [5] | Phototoxic index [5]
1 | O=c1cc(/C=C/c2ccc3c(c2)OCO3)occ1O [Compound of Ex. 5, 2-((1E)-2-(2H,3H-benzo [3,4-d] 1,3-dioxolan-5-yl)vinyl)-5-hydroxy-4H-pyran-4-one] | 0.00 | 30 | 0 | 0 | 0 | 0 | 30 | 0 | 0 | 0 | 0 | 88% | No irritation | 0.375 | 116% | No phototoxicity | 0
2 | ((3E)-4-(2H,3H-benzo [3,4-d] 1,3-dioxolan-5-yl)-2-oxobut-3-enyloxy)-5-hydroxy-4H-pyran-4-one [Compound of Ex. 3] | 0.00 | 30 | 0 | 0 | 0 | 0 | 30 | 0 | 0 | 0 | 0 | 78% | No irritation | 0.375 | 123% | No phototoxicity | 0

From US6916844B2, “Hydroxy pyranone derivative and preparation method thereof” (Amorepacific Corporation, priority 2002, dated 2005)
